Source: the supplement of paper PMC11208160

Assay: recombinant UMI read abundance after kanamycin selection (control-corrected) (log10(CPM+1)); higher = more efficient recombination; extreme values may be limits of the assay; sequences stand for … in AGTGCAGAGAAAATCGGCCAGTTTTCTCTGCCTGCAGTCCGCATGCCGTGGGACCCCTTGGGTTCTAACCTGTTGCCTAGATTTATGCAGCGGACTGCCTTTCTCCCAAAGTGATAAACCGG…AGGTTGGTTTCACT; site = the 11-nt donor
Summary of the method: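 Reported values are log10(CPM+1) from a pooled Escherichia coli screen of donor and donor-binding-loop pairs for the IS621 bridge recombinase. Selection used IPTG (0.07 mM) plus kanamycin, against unselected plating, each in two replicates. Recombinant UMIs were amplified across the donor–target junction, sequenced, converted to CPM, averaged over replicates and scaled by control-derived factors.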
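Note: IS621 bridge recombinase in Escherichia coli cells against a fixed T5 target plasmid.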

| Sequence | recombinant UMI read abundance (log10) |
| --- | --- |
| CCGTTAACATGGACCGGTTTTCCCGGTAATCCGTATTTGTG (site CCGTTATCTCA) | 0.00955 |
| CCGTTAGCATGGACCGGTTTTCCCGGTAATCCGTATTTGGG (site CCGTTAGCTCA) | 0.0109 |
| CCGTTAGCATGGACCGGTTTTCCCGGTAATCCGTATTTGGG (site CCGTTAGCTCC) | 0.00956 |
| CCGTTAGCATGGACCGGTTTTCCCGGTAATCCGTATTTGGG (site CCGTTAGCTCG) | 0 |
| CCGTTAGCATGGACCGGTTTTCCCGGTAATCCGTATTTGGG (site CCGTTAGCTCT) | 0 |
| CCGTTTACATGGACCGGTTTTCCCGGTAATCCGTATTTGCT (site ACGTTTACTAG) | 0 |
| CCGTTTACATGGACCGGTTTTCCCGGTAATCCGTATTTGCT (site CAGTTTACTAG) | 0 |
| CCGTTTACATGGACCGGTTTTCCCGGTAATCCGTATTTGCT (site CCATTTACTAG) | 0 |
| CCGTTTACATGGACCGGTTTTCCCGGTAATCCGTATTTGCT (site CCCTTTACTAG) | 0 |
| CCGTTTACATGGACCGGTTTTCCCGGTAATCCGTATTTGCT (site CCGATTACTAG) | 0 |
| CCGTTTACATGGACCGGTTTTCCCGGTAATCCGTATTTGCT (site CCGCTTACTAG) | 0 |
| CCGTTTACATGGACCGGTTTTCCCGGTAATCCGTATTTGCT (site CCGGTTACTAG) | 0 |
| CCGTTTACATGGACCGGTTTTCCCGGTAATCCGTATTTGCT (site CCGTATACTAG) | 0 |
| CCGTTTACATGGACCGGTTTTCCCGGTAATCCGTATTTGCT (site CCGTCTACTAG) | 0 |
| CCGTTTACATGGACCGGTTTTCCCGGTAATCCGTATTTGCT (site CCGTGTACTAG) | 0 |
| CCGTTTACATGGACCGGTTTTCCCGGTAATCCGTATTTGCT (site CCGTTAACTAG) | 0 |
| CCGTTTACATGGACCGGTTTTCCCGGTAATCCGTATTTGCT (site CCGTTCACTAG) | 0.00422 |
| CCGTTTACATGGACCGGTTTTCCCGGTAATCCGTATTTGCT (site CCGTTGACTAG) | 0 |
| CCGTTTACATGGACCGGTTTTCCCGGTAATCCGTATTTGCT (site CCGTTTACTAA) | 0 |
| CCGTTTACATGGACCGGTTTTCCCGGTAATCCGTATTTGCT (site CCGTTTACTAC) | 0 |
| CCGTTTACATGGACCGGTTTTCCCGGTAATCCGTATTTGCT (site CCGTTTACTAG) | 0 |
| CCGTTTACATGGACCGGTTTTCCCGGTAATCCGTATTTGCT (site CCGTTTACTAT) | 0 |
| CCGTTTACATGGACCGGTTTTCCCGGTAATCCGTATTTGCT (site CCGTTTACTCG) | 0 |
| CCGTTTACATGGACCGGTTTTCCCGGTAATCCGTATTTGCT (site CCGTTTACTGG) | 0 |
| CCGTTTACATGGACCGGTTTTCCCGGTAATCCGTATTTGCT (site CCGTTTACTTG) | 0 |
| CCGTTTACATGGACCGGTTTTCCCGGTAATCCGTATTTGCT (site CCGTTTCCTAG) | 0 |

| Sequence | recombinant UMI read abundance (log10) |
| --- | --- |
| CCGTTTACATGGACCGGTTTTCCCGGTAATCCGTATTTGCT (site CCGTTTGCTAG) | 0.00881 |
| CCGTTTACATGGACCGGTTTTCCCGGTAATCCGTATTTGCT (site CCGTTTTCTAG) | 0 |
| CCGTTTACATGGACCGGTTTTCCCGGTAATCCGTATTTGCT (site CCTTTTACTAG) | 0 |
| CCGTTTACATGGACCGGTTTTCCCGGTAATCCGTATTTGCT (site CGGTTTACTAG) | 0 |
| CCGTTTACATGGACCGGTTTTCCCGGTAATCCGTATTTGCT (site CTGTTTACTAG) | 0 |
| CCGTTTACATGGACCGGTTTTCCCGGTAATCCGTATTTGCT (site GCGTTTACTAG) | 0 |
| CCGTTTACATGGACCGGTTTTCCCGGTAATCCGTATTTGCT (site TCGTTTACTAG) | 0 |
| CCGTTTCCATGGACCGGTTTTCCCGGTAATCCGTATTTGCT (site CCGTTTACTAG) | 0 |
| CCGTTTCCATGGACCGGTTTTCCCGGTAATCCGTATTTGCT (site CCGTTTCCTAG) | 0 |
| CCGTTTCCATGGACCGGTTTTCCCGGTAATCCGTATTTGCT (site CCGTTTGCTAG) | 0 |
| CCGTTTCCATGGACCGGTTTTCCCGGTAATCCGTATTTGCT (site CCGTTTTCTAG) | 0 |
| CCTAAAACATGGACCGGTTTTCCCGGTAATCCGTATTTGAT (site CCTAAAACTAT) | 0 |
| CCTAAAACATGGACCGGTTTTCCCGGTAATCCGTATTTGAT (site CCTAAACCTAT) | 0.00551 |
| CCTAAAACATGGACCGGTTTTCCCGGTAATCCGTATTTGAT (site CCTAAAGCTAT) | 0.00636 |
| CCTAAAACATGGACCGGTTTTCCCGGTAATCCGTATTTGAT (site CCTAAATCTAT) | 0 |
| CCTAAAACATGGACCGGTTTTCCCGGTAATCCGTATTTGGC (site CCTAAAACTGC) | 0 |
| CCTAAAACATGGACCGGTTTTCCCGGTAATCCGTATTTGGC (site CCTAACACTGC) | 0 |
| CCTAAAACATGGACCGGTTTTCCCGGTAATCCGTATTTGGC (site CCTAAGACTGC) | 0 |
| CCTAAAACATGGACCGGTTTTCCCGGTAATCCGTATTTGGC (site CCTAATACTGC) | 0 |
| CCTAAAGCATGGACCGGTTTTCCCGGTAATCCGTATTTGGT (site CCTAAAGCTAA) | 0.00229 |
| CCTAAAGCATGGACCGGTTTTCCCGGTAATCCGTATTTGGT (site CCTAAAGCTAC) | 0 |
| CCTAAAGCATGGACCGGTTTTCCCGGTAATCCGTATTTGGT (site CCTAAAGCTAG) | 0 |
| CCTAAAGCATGGACCGGTTTTCCCGGTAATCCGTATTTGGT (site CCTAAAGCTAT) | 0 |
| CCTAATACATGGACCGGTTTTCCCGGTAATCCGTATTTGAC (site CCTAATACTGA) | 0 |
| CCTAATACATGGACCGGTTTTCCCGGTAATCCGTATTTGAC (site CCTAATACTGC) | 0 |
| CCTAATACATGGACCGGTTTTCCCGGTAATCCGTATTTGAC (site CCTAATACTGG) | 0 |
